Measured values: patent publication US20230040125A1, “TARGETING THE INTRINSIC APOPTOTIC MACHINERY IN GLIOBLASTOMA” (The Regents of The University Of California, priority 2019, published 2023)
“Also recorded” adds a separate entry of the source.

System: GBM lines
Assay: TMZ/IR titrated across a panel of GBM lines with a fixed dose of BCLXL inhibitor, cell death
Type: cell-based
Conditions: TMZ/IR titrated with a fixed dose of A1155463
Excerpt: In the triplet of histogram bars for each dosage, the left bar represents all data (TMZR/IR alone, n=17), the center bar represents p53 WT+BCLXL In. (n=12), and the right bar represents p53 mutants+BCLXL In. (n=5). […] To investigate if BCL-xL is preventing the standard of care from inducing apoptosis, TMZ/IR were titrated in across a panel of genetically diverse GBM lines (n=17) with a fixed dose of BCLXL inhibitor (A1155463).

Structure (SMILES): CN(C)CC#Cc1ccc(OCCCc2sc(N3CCc4cccc(C(=O)Nc5nc6ccccc6s5)c4C3)nc2C(=O)O)c(F)c1 [A1155463]
- cell death (p53 mutant GBM, panel n=17 (p53 mutants n=5)): no added benefit
- cell death (p53 wild type GBM, panel n=17 (p53 WT n=12)): significantly increase cell death; also recorded: increases cell death
